Where “and” joins values, the source holds several entries; their conditions need not be identical. Equal entries are not always repeated.
Key:
[1] = target: T1, β1Y32V,W163I (double mutant) (Rattus norvegicus, UniProt P97678, W163I/Y32V); assay: Thermal unfolding (MST) of β1 double mutant; assay type: binding
T1 construct: FLAG (DYKDDDDK); made in house; host or cells: CHO cells, transient transfection, anti-flag immunoprecipitation
Text: (§1) BK channel-forming slo1 cDNA (cbv1 isoform; AY330293) was cloned from rat cerebral artery SM cells, and inserted into pcDNA3.1 vector as described. BK β1 cDNA (KCNMB1 product; NP_011452; FJ154955) were isolated from rat cerebral artery SM cells and cloned as described. β4 cDNA (KCNMB4; NP_055320; AY028605) were generously provided by Dr. Ligia Toro. CHO cells were transiently transfected with cbv1 ± β1-, or β4-carrying pcDNA3.1 using X-tremeGENE HP (Sigma-Aldrich). Mutations to β1/4 cDNAs were conducted by Genscript, with sequences being confirmed to be >99% identical to KCNMB1 product; NP_011452 or β4 KCNMB4; NP_055320; respectively. β1/4 and mutant constructs were flag-tagged (DYKDDDDK-tag) by Genscript services for subsequent immunoprecipitation and use in microscale thermophoresis studies.
(§2) Wt β1, wt β4 and mutant constructs were purified by immunoprecipitation using Dynabeads Protein G Kit (10007D by Invitrogen) and following the manufacturer’s instructions. […] The unfolding profile of a protein is a plot of its fluorescence signal against temperature. […] During the heating process, fluorescence is recorded at 330 and 350 nm. The resulting fluorescence ratio change is then analyzed for onset and inflection points. The temperature of onset and inflection is determined using built-in analysis function in Nanotemper PR.therm-control software. […]

[2] = target: T2, slo1 (cbv1) homotetramers (Rattus norvegicus, UniProt Q62976); assay: Channel activity (NPo) in POPE/POPS bilayers, cbv1 homomers; assay type: biochemical
T2 construct: made in house; host or cells: CHO cells, transient transfection; sucrose-gradient membrane preparation
Text: as §1
Proteins for electrophysiological recordings in artificial lipid bilayers remained untagged. Cells were transiently transfected as described above, pelleted and re-suspended on ice in 10 ml of buffer solution of the following composition (mM): 30 KCl, 2 MgCl2, 10 HEPES, 5 EGTA; pH 7.2. A membrane preparation was obtained using a sucrose gradient as described. Aliquots were stored at −80 °C. BK channel-mediated ionic current was recorded in planar lipid bilayers consisting of a POPE:POPS 3:1 (w/w) mixture. Lipid mixtures were dried under N2 and re-suspended in 25 mg/ml of n-decane BK currents following incorporation into horizontal bilayers at 300/30 mM cis/trans gradient as detailed elsewhere. Ion currents were obtained during a 10-min gap-free recording at 0 mV in the presence of 0.01, 10 μM PROG, 10 μM PROG-oxime, or vehicle control (dimethyl sulfoxide; DMSO). Currents were obtained in gap-free mode using a Warner BC-525D amplifier, low pass-filtered at 1 kHz and sampled at 5 kHz with Digidata 1550B/pCLAMP 11 (Molecular Devices). For comparison with previous data from us[16],[17],[45]–[47], studies were conducted at 20–22 °C. PROG stock, oxime stock or vehicle control (DMSO) was added to the bilayer cis chamber to reach final concentrations (0.01–10 µM), with all compounds being dissolved with the same concentration of DMSO (0.1%); n = 5–10 for each group.
Patch-clamp and bilayer data were analyzed using Clampfit 10.7 software (Molecular Devices). NPo was used as an index of channel steady-state activity where N = number of channels in the patch (defined as a maximal number of opening levels at Po≤1) and Po=single channel open probability. Drug-induced NPo changes were determined by comparing baseline NPo (i.e., NPo with the patch/cell perfused with bath solution) to the NPo from the same patch/cell exposed to the agent under study (DMSO/PROG/oxime) dissolved in bath solution. NPo and mean open time values were automatically calculated using Clampfit 10.7, the latter using a 50% threshold detection event.

[3] = target: T3, β1Y32F (Rattus norvegicus, UniProt P97678, Y32F); assay: Thermal unfolding (MST) of β1Y32F; assay type: binding
T3 construct: FLAG (DYKDDDDK); made in house; host or cells: CHO cells, transient transfection, anti-flag immunoprecipitation
Text: as §1, §2

T2 sequence (Q62976 1-1148 isoform Q62976-2): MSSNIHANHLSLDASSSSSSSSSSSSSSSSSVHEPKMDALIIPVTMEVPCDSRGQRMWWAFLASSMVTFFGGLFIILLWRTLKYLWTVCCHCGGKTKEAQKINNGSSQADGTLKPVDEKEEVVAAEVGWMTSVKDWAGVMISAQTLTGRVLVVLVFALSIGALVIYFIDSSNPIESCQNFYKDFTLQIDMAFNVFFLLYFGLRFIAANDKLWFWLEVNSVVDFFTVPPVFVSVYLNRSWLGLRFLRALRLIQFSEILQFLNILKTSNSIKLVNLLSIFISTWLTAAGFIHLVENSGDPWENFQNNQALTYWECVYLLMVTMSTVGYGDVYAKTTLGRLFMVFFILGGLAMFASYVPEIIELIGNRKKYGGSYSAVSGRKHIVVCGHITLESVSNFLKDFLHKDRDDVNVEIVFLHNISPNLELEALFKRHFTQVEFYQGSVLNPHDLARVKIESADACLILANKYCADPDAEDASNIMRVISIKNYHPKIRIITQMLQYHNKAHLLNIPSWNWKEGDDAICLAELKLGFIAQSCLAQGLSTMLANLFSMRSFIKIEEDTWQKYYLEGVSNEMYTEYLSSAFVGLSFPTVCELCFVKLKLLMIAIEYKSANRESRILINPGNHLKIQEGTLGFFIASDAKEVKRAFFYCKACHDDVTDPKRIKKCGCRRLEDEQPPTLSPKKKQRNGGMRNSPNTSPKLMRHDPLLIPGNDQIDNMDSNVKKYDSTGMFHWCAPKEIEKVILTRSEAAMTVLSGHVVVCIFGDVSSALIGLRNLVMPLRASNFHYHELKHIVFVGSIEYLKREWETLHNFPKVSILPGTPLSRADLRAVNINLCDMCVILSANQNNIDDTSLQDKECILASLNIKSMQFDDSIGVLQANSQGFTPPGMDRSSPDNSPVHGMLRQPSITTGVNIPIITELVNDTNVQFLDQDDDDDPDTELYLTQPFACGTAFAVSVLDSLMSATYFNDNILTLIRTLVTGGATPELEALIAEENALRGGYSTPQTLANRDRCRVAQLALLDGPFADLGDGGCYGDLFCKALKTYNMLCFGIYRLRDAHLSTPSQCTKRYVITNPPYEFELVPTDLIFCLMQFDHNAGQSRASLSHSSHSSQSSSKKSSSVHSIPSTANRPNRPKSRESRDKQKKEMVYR
T1 sequence (P97678 whole entry Y32V/W163I): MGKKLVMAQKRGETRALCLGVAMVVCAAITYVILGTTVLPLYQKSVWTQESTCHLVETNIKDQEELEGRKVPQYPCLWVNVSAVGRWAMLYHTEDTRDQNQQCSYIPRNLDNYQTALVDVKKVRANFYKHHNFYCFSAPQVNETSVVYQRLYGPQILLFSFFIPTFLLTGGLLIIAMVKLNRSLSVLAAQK
T3 sequence (P97678 whole entry Y32F): as the sequence (P97678 whole entry Y32V/W163I) above, with V32F, I163W counted along it

In the case of CC(=O)[C@H]1CC[C@H]2[C@@H]3CCC4=CC(=O)CC[C@]4(C)[C@H]3CC[C@]12C [PROG, Progesterone], the “effect on thermal unfolding / binding” value ([1]; 4.1 μM) is reported as “not destabilized”, the “effect on thermal unfolding / binding” value ([1]; low concentrations (subμM)) is reported as “still destabilized” and the NPo/NPobasal ([2]; 10 µM PROG, min 2, single records) is reported as 1.014 and 0.7178 and 0.9853 and 1 and 0.9322. The NPo/NPobasal ([2]; 10 µM PROG, min 4, single records) was 1.047 and 1.067 and 1.015 and 1.069 and 1.029, the NPo/NPobasal ([2]; 10 µM PROG, min 5, single records) was 1.023 and 1.182 and 1.11 and 1.053 and 1.066 and the NPo/NPobasal ([2]; 10 µM PROG, min 6, single records) was 1.028 and 1.207 and 1.088 and 1.041 and 1.129. The NPo/NPobasal ([2]; 10 µM PROG, min 7, single records) was 0.8935 and 1.1318 and 1.162 and 1.118 and 1.064, the NPo/NPobasal ([2]; 10 µM PROG, min 8, single records) was 1.148 and 1.63 and 1.096 and 1.061 and 1.045 and the NPo/NPobasal ([2]; 10 µM PROG, min 10, single records) was 1.394 and 1.416 and 1.11 and 0.7114 and 1.049. The “maximal activity (NPo/NPobasal)” value ([2]; 10 µM PROG, single records (Fig 1I)) was 1.053 and 1.066 and 1.023 and 1.182 and 1.11, the “action on channel activity (NPo)” value ([2]; 10 μM, up to 10 min) was “consistently failed to activate the homomeric channels” and the binding [3] was “still bind PROG”.

— paper PMC10636063, “Progesterone activation of β1-containing BK channels involves two binding sites” (Nature Communications, 2023)
